Results taken from patent US5389663A, “1-(1h-1,2,4-triazole-yl)-2-propanol compounds” (Takeda Chemical Industries, Ltd., priority 1991, dated 1995).

System: Candida albicans IFO 0583
Experiment: Paper disc agar diffusion, growth inhibition zone, Candida albicans IFO 0583
Type: cell-based
Details: Table 5, Medium A, 28° C., two-day culture, 1000 μ/ml, 8 mm disc; for zone of inhibition at 1000 µg/mL: Candida albicans, IFO0583, 48 h, read-out: Diameter of growth-inhibition zone
Procedure: Evaluation of the antifungal activities of the compound of formula (I) was conducted by the following method: a sheet of filter paper disc (manufactured by Toyo Seisakusho, 8 mm in diameter) soaked in a […] solution of a compound of formula (I) in methanol was placed on an agar plate containing various fungi, which was incubated at 28° C. for two days, and the diameter of the growth inhibition zone around the filter paper disc was measured. The following culture media were used: A: yeast nitrogen base agar medium (pH 7.0) B: Sabouraud agar medium
cpd. No. (Medium A, 28° C., two-day culture)

`CC(=C(Cn1cncn1)c1ccc(F)cc1F)S(=O)(=O)N1CCN(c2ccccc2)CC1` (single isomer, unassigned) [Compound 30, 1-[3-(2,4-difluorophenyl)-4-(1H-1,2,4-triazol-1-yl)-2-buten-2-ylsulfonyl]-4-phenylpiperazine] was tested, and the “Diameter of growth-inhibition zone” value was 12 mm.

`CC(=C(Cn1cncn1)c1ccc(F)cc1F)S(=O)(=O)N1CCN(c2ccccc2)CC1` (single isomer, unassigned) [Compound 31, 1-[3-(2,4-difluorophenyl)-4-(1H-1,2,4-triazol-1-yl)-2-buten-2-ylsulfonyl]-4-phenylpiperazine] was tested, and the “Diameter of growth-inhibition zone” value was 35 mm.

`CCCCNS(=O)(=O)C(C)=C(Cn1cncn1)c1ccc(F)cc1F` (single isomer, unassigned) [Compound 32, N-butyl-3-(2,4-difluorophenyl)-4-(1H-1,2,4-triazol-1-yl) -2-butene-2-sulfonamide] gave a zone of inhibition at 1000 µg/mL of 12 mm.

With `CC(=C(Cn1cncn1)c1ccc(F)cc1F)S(=O)(=O)N(C)C` (single isomer, unassigned) [Compound 34, N,N-dimethyl-3-(2,4-difluorophenyl)-4-(1H-1,2,4-triazol-1-yl)-2-butene-2-sufonamide] the zone of inhibition at 1000 µg/mL was 15 mm.

In the case of `C[C@@H](SNC1CCCCC1)[C@](O)(Cn1cncn1)c1ccc(F)cc1F` [Compound 5], the zone of inhibition at 1000 µg/mL is reported as 35 mm.

`C[C@@H](SN1CCOCC1)[C@](O)(Cn1cncn1)c1ccc(F)cc1F` [Compound 7, N-[(2R,3R)-3-(2,4-difluorophenyl)-3-hydroxy-4-(1H-1,2,4-triazol-1-yl) -2-butylsulfenyl]morpholine] showed a zone of inhibition at 1000 µg/mL of 33 mm.

`C[C@@H](SN1CCN(C(=O)OC(C)(C)C)CC1)[C@](O)(Cn1cncn1)c1ccc(F)cc1F` [Compound 17, N-tert-butoxycarbonyl-4-[(2R,3R)-3-(2,4-difluorophenyl)-3-hydroxy-4-(1H-1,2,4-triazol-1-yl)-2-butylsulfenyl]piperazine] was tested, and the zone of inhibition at 1000 µg/mL was 40 mm.

Work on `C[C@@H]([S+]([O-])N1CCN(C(=O)OC(C)(C)C)CC1)[C@](O)(Cn1cncn1)c1ccc(F)cc1F` (stereo partly shown) [Compound 18] yielded a zone of inhibition at 1000 µg/mL of 37 mm.

Compound `C[C@H]([C@](O)(Cn1cncn1)c1ccc(F)cc1F)S(=O)(=O)N1CCN(C(=O)OC(C)(C)C)CC1` [Compound 19, 1-tert-butoxycarbonyl-4-[(2R,3R)-3-(2,4-difluorophenyl)-3-hydroxy-4-(1H-i,2,4-triazol-1-yl) -2-butylsulfonyl]piperazine] has a zone of inhibition at 1000 µg/mL of 40 mm.

Compound `C[C@H]([C@](O)(Cn1cncn1)c1ccc(F)cc1F)S(=O)(=O)N1CCNCC1` [Compound 20, 1-[(2R,3R)-3-(2,4-difluorophenyl)-3hydroxy-4-(1H-2,4-triazol-1-yl)-2-butylsulfonyl]piperazine] has a zone of inhibition at 1000 µg/mL of 22 mm.

`C[C@H]([C@](O)(Cn1cncn1)c1ccc(F)cc1F)S(=O)(=O)Nc1ccc(Br)cc1` [Compound 22, N-(4-bromophenyl)-[(2R, 3R)-3-(2,4-difluorophenyl)-3-hydroxy-4-(1H-1,2,4-triazol-1-yl)-2-butane]sulfonamide] gave a zone of inhibition at 1000 µg/mL of 30 mm.

`C[C@H]([C@](O)(Cn1cncn1)c1ccc(F)cc1F)S(=O)(=O)N1CCN(C(=O)c2ccc(C(F)(F)F)cc2)CC1` [Compound 24, 1-[(2R,3R)-3-(2,4-difluorophenyl)-3-hydroxy-4-(1H-1,2,4-triazol-1-yl)-2-butylsulfonyl]-4-(4-trifluoromethylbenzoyl)piperazine] was tested, and the zone of inhibition at 1000 µg/mL was 37 mm.

Work on `CC(=O)N1CCN(S(=O)(=O)[C@H](C)[C@](O)(Cn2cncn2)c2ccc(F)cc2F)CC1` [Compound 25, 1-acetyl-4-[(2R,3R)-3-(2,4-difluorophenyl)-3-hydroxy-4-(1H-1,2,4-triazol-1-yl)-2-butylsulfonyl]piperazine] yielded a zone of inhibition at 1000 µg/mL of 30 mm.

`C[C@H]([C@](O)(Cn1cncn1)c1ccc(F)cc1F)S(=O)(=O)N1CCN(Cc2nncn2C)CC1` [Compound 26, 1-[(2R,3R)-3-(2,4-difluorophenyl)-3-hydroxy-4-(1H-1,2,4-triazol-1-yl)-2-butylsulfonyl]-4-(4-methyl-4H-1,2,4-triazol-3-ylmethyl) piperazine] gave a zone of inhibition at 1000 µg/mL of 20 mm.

`C[C@H]([C@](O)(Cn1cncn1)c1ccc(F)cc1F)S(=O)(=O)N1CCCC1` [Compound 28, 1-[(2R,3R)-3-(2,4-difluorophenyl)-3-hydroxy-4-(1H-1,2,4-triazol-1-yl)-2-butylsulfonyl]pyrrolidine] gave a zone of inhibition at 1000 µg/mL of 50 mm.

With `C[C@H]([C@](O)(Cn1cncn1)c1ccc(F)cc1F)S(=O)(=O)NCc1nncn1C` [Compound 41, N-(4-methyl-4H-1,2,4-triazol-3-ylmethyl)-[(2R,3R)-3-(2,4-difluorophenyl)-3-hydroxy-4-(1H-1,2,4-triazol-1-yl)-2-butane]sulfonamide] the zone of inhibition at 1000 µg/mL was 23 mm.

`CCC(C)n1ncn(-c2ccc(N3CCN(S(=O)(=O)[C@H](C)[C@](O)(Cn4cncn4)c4ccc(F)cc4F)CC3)cc2)c1=O` (stereo partly drawn) [Compound 42, 1-[4-[2-(2-butyl)-2,3-dihydro-3-oxo-4H-1,2,4-triazol-4-yl]phenyl]-4-[(2R,3R)-3-(2,4-difluorophenyl)-3-hydroxy-4-(1H-1,2,4-triazol-1-yl)-2-butanesulfonyl]piperazine] was tested, and the zone of inhibition at 1000 µg/mL was 40 mm.

For `CCC(C)n1ncn(-c2ccc(N3C=CN(S(=O)(=O)[C@H](C)[C@](O)(Cn4cncn4)c4ccc(F)cc4F)CC3)cc2)c1=O` (stereo partly drawn) [Compound 43, 1-[4-[2-(2-butyl)-2,3-dihydro-3-oxo-4H-1,2,4-triazol-4-yl]phenyl]-4-[(2R,3R)-3-(2,4-difluorophenyl)-3-hydroxy-4-(1H-1,2,4-triazol-1-yl)-2-butanesulfonyl]-1,2,3,4-tetrahydropyrazine], the zone of inhibition at 1000 µg/mL was 35 mm.

`C[C@H]([C@](O)(Cn1cncn1)c1ccc(F)cc1F)S(=O)(=O)N1CCN(c2ccc(-n3cnn(CC(F)(F)F)c3=O)cc2)CC1` [Compound 44, 1-[4-[2-(2,2,2-trifluoroethyl)-2,3-dihydro-3-oxo-4H-1,2,4-triazol-4-yl]phenyl]-4-[(2R,3R)-3-(2,4-difluorophenyl)-3-hydroxy-4-(1H-1,2,4-triazol-1-yl)-2-butanesulfonyl]piperazine] gave a zone of inhibition at 1000 µg/mL of 33 mm.

With `C[C@H]([C@](O)(Cn1cncn1)c1ccc(F)cc1F)S(=O)(=O)N1CCN(c2ncccn2)CC1` [Compound 45, 1-[(2R,3R)-3-(2,4-difluorophenyl)-3-hydroxy-4-(1H-1,2,4-triazol-1-yl)-2-butanesulfonyl]-4-(2-pyrimidinyl) piperazine] the zone of inhibition at 1000 µg/mL was 50 mm.

`C[C@H]([C@](O)(Cn1cncn1)c1ccc(F)cc1F)S(=O)(=O)N(C)Cc1ccccc1` [Compound 47, N-benzyl-N-methyl-[(2R,3R)-3-(2,4-difluorophenyl)-3-hydroxy-4-(1H-1,2,4-triazol-1-yl)-2-butane]sulfonamide] showed a zone of inhibition at 1000 µg/mL of 45 mm.

In the case of `C[C@@H](NS(=O)(=O)c1ccc(F)cc1F)[C@](O)(Cn1cncn1)c1ccc(F)cc1F` [Compound 50], the zone of inhibition at 1000 µg/mL is reported as 45 mm.

`C[C@@H](NS(=O)(=O)c1ccc(N)cc1)[C@](O)(Cn1cncn1)c1ccc(F)cc1F` [Compound 52] gave a zone of inhibition at 1000 µg/mL of 35 mm.

Compound `C[C@@H](NS(=O)(=O)CCCCl)[C@](O)(Cn1cncn1)c1ccc(F)cc1F` [Compound 56] has a zone of inhibition at 1000 µg/mL of 30 mm.

`C[C@@H](N1CCCS1(=O)=O)[C@](O)(Cn1cncn1)c1ccc(F)cc1F` [Compound 57] showed a zone of inhibition at 1000 µg/mL of 35 mm.
